Measured values published in ChEMBL document CHEMBL3044953, “Effect of nitrogen insertion on the antitussive properties of menthol and camphor” (Med Chem Res, 2012).
Activity calls are given as the source filed them. The rule behind the calls is not given here.

Tests used:
Cavia porcellus [1] = species: Cavia porcellus; assay: Antitussive activity against crtric acid-induced cough in Cavia porcellus (guinea pig) model assessed as cough response at 125 ug/ml for 5 min through aerosol prior to exposure of aerosolized citric acid for 10 min; assay type: functional, organism-based
Cavia porcellus [2] = species: Cavia porcellus; assay: Antitussive activity against crtric acid-induced cough in Cavia porcellus (guinea pig) model assessed as increase in cough latency at 500 ug/ml for 5 min through aerosol prior to exposure of aerosolized citric acid for 10 min; assay type: functional, organism-based
Cavia porcellus [3] = species: Cavia porcellus; assay: Antitussive activity against crtric acid-induced cough in Cavia porcellus (guinea pig) model assessed as cough latency at 125 to 250 ug/ml for 5 min through aerosol prior to exposure of aerosolized citric acid for 10 min; assay type: functional, organism-based
Cavia porcellus [4] = species: Cavia porcellus; assay: Antitussive activity against crtric acid-induced cough in Cavia porcellus (guinea pig) model assessed as reduction in cough response at 250 to 500 ug/ml for 5 min through aerosol prior to exposure of aerosolized citric acid for 10 min; assay type: functional, organism-based
Cavia porcellus [5] = species: Cavia porcellus; assay: Antitussive activity against crtric acid-induced cough in Cavia porcellus (guinea pig) model assessed as reduction in cough response at 15 to 60 ug/ml for 5 min through aerosol prior to exposure of aerosolized citric acid for 10 min; assay type: functional, organism-based
Cavia porcellus [6] = species: Cavia porcellus; assay: Antitussive activity against crtric acid-induced cough in Cavia porcellus (guinea pig) model assessed as increase in cough latency at 30 to 60 ug/ml for 5 min through aerosol prior to exposure of aerosolized citric acid for 10 min; assay type: functional, organism-based
Cavia porcellus [7] = species: Cavia porcellus; assay: Antitussive activity against crtric acid-induced cough in Cavia porcellus (guinea pig) model assessed as cough latency at 125 ug/ml for 5 min through aerosol prior to exposure of aerosolized citric acid for 10 min; assay type: functional, organism-based
Cavia porcellus [8] = species: Cavia porcellus; assay: Toxicity in Cavia porcellus (guinea pig) assessed as irritation at 125 to 500 ug/ml through aerosol; assay type: organism-based; conditions: in vivo, inhaled_or_intranasal
Cavia porcellus [9] = species: Cavia porcellus; assay: Antitussive activity against crtric acid-induced cough in Cavia porcellus (guinea pig) model assessed as reduction in cough response at 125 to 500 ug/ml for 5 min through aerosol prior to exposure of aerosolized citric acid for 10 min; assay type: functional, organism-based
Cavia porcellus [10] = species: Cavia porcellus; assay: Antitussive activity against crtric acid-induced cough in Cavia porcellus (guinea pig) model assessed as increase in cough latency at 250 to 500 ug/ml for 5 min through aerosol prior to exposure of aerosolized citric acid for 10 min; assay type: functional, organism-based
Cavia porcellus [11] = species: Cavia porcellus; assay: Toxicity in Cavia porcellus (guinea pig) assessed as adverse behavior at 125 to 500 ug/ml through aerosol; assay type: organism-based; conditions: in vivo, inhaled_or_intranasal
Cavia porcellus [12] = species: Cavia porcellus; assay: Toxicity in Cavia porcellus (guinea pig) assessed as adverse behavior at 15 to 60 ug/ml through aerosol; assay type: organism-based; conditions: in vivo, inhaled_or_intranasal
Cavia porcellus [13] = species: Cavia porcellus; assay: Antitussive activity against crtric acid-induced cough in Cavia porcellus (guinea pig) model assessed as increase in cough latency at 15 to 60 ug/ml for 5 min through aerosol prior to exposure of aerosolized citric acid for 10 min; assay type: functional, organism-based
Cavia porcellus [14] = species: Cavia porcellus; assay: Toxicity in Cavia porcellus (guinea pig) assessed as irritation at 15 to 60 ug/ml through aerosol; assay type: organism-based; conditions: in vivo, inhaled_or_intranasal

Q: What does the source list for `CC12CCC(CC1=O)C2(C)C` (stereo not given)?
A: inhibition (Cavia porcellus [1]): inactive; Activity (Cavia porcellus [2]): Active; Activity (Cavia porcellus [3]): inactive; inhibition (Cavia porcellus [4]): Active

Q: Which results are given for `CC1CCC(C(C)C)C(O)C1` (stereo not given)?
A: inhibition (Cavia porcellus [5]): Active; Activity (Cavia porcellus [6]): Active

Q: Which results are given for `CC1(C)C2CC[C@]1(C)C(=O)NC2` [Alpha-camphidone]?
A: Activity (Cavia porcellus [7]): inactive; Activity (Cavia porcellus [8]): Non-toxic; inhibition (Cavia porcellus [9]): Active; Activity (Cavia porcellus [10]): Active; Activity (Cavia porcellus [11]): Non-toxic

Q: For `CC(C)[C@@H]1CC[C@@H](C)CC(=O)N1` [Menthol lactam], which inhibition (Cavia porcellus [5]) is on record?
A: Its inhibition is “Active”.

Q: And the Activity (Cavia porcellus [12])?
A: Its Activity is “Non-toxic”.

Q: And the Activity (Cavia porcellus [13])?
A: Its Activity is “Active”.

Q: And the Activity (Cavia porcellus [14])?
A: The Activity was “Non-toxic”.
